{"source": "patent US20230310427A1", "about": "“NEW THERAPEUTIC USE OF RILPIVIRINE” (UNIVERSITY OF SOUTH AUSTRALIA, priority 2020, published 2023)", "key": {"[1]": {"test_system": "expanded panel of 429 different kinases", "experiment": "Kinase profiling, expanded panel", "format": "biochemical", "conditions": "1 µM", "description": "The ability of compounds to inhibit kinases was measured using ADP-Glo^Tm assay kits (Promega, Madison, WI, United States of America) or externally using radioisotope based assays (Reaction Biology Corporation, Malvern, PA, United States of America and Eurofins discovery services, France). The ADP-Glo assay was performed as reported previously (Basnet SK et al., Mol Pharmacol 88(5):935-948, 2015).The assay plate was read for luminescence using Envision multi-label plate reader (PerkinElmer, Waltham, MA, United States of America). Half-maximal inhibition (IC50) values were determined from a plot of percent residual activity versus concentration of test compounds using GraphPad Prism software. Ki values were calculated from IC50 values using the Cheng-Prusoff equation: Ki= IC50/ [1 + ([ATP]/Km ATP)], where [ATP] is the ATP concentration used for the IC50 determination and Km ATP for each kinase is determined from an individual experiment.\nIn a subsequent kinase profiling experiment, using an expanded panel of 429 different kinases, the inhibitory activity of Rilpivirine was confirmed using a reduced concentration of 1 µM. […] The percent inhibition against Aurora A, PIM1, LYN and YES kinases were 86, 78, 77 and 83% respectively at the concentration of 1 µM of Rilpivirine. The other 424 kinases were inhibited by less than 70 % at this concentration."}, "Jurkat cells": {"test_system": "Jurkat cells", "experiment": "Cell cycle analysis (flow cytometry)", "format": "cell-based", "conditions": "various concentrations, 24 hour", "description": "(§1) The effect of Rilpivirine on cell cycle distribution in different cancer cell lines was evaluated by flow cytometric analysis. Briefly, cells were seeded in 6-well plates at a density of 6 × 10^4 cells/well. All plates were incubated overnight at 37° C. in a 5% CO2 incubator. Following the incubation, the test compounds (Rilpivirine (Ril) and comparators, Alisertib (Ali; a known Aurora A inhibitor) and Etravirine (Etra; 4-[[6-amino-5-bromo-2-[(4-cyanophenyl)amino]-4-pyrimidinyl]oxy]-3,5-dimethylbenzonitrile - a structurally similar NNRTI drug compound sold under the brand name Intelence® (Janssen Therapeutics)) were added to individual wells and the plates were incubated at same condition for 24 h, 48 h or 72 h. Subsequently, the medium was removed from the wells and transferred into fluorescence-activated cell sorting (FACS) tubes. The adherent cells remaining were trypsinised, re-suspended in media and transferred into the FACS tubes. Cells were centrifuged, fixed with cold 70% ethanol for 15 min and pelleted. The pelleted cells were then re-suspended in 200 µL propidium iodide (PI) solution (50 µg/mL propidium iodide, 0.1 mg/mL ribonuclease A, 0.1% sodium citrate, 0.1% triton X-100) and incubated in the dark for 1.5 h at room temperature. Following the incubation, 200 µL PBS was added. Samples were assessed using a flow cytometer (Cytoflex; Beckman Coulter Inc, Brea, CA, United States of America) and data were analysed using the Cytexpert software."}, "NB4 cells": {"test_system": "NB4 cells", "experiment": "Cell cycle analysis (flow cytometry)", "format": "cell-based", "conditions": "various concentrations, 24 hour", "description": "as §1"}, "OVCAR-5 cells": {"test_system": "OVCAR-5 cells", "experiment": "Cell cycle analysis (flow cytometry)", "format": "cell-based", "conditions": "72 hour, 5 µM, 10 µM and 20 µM; p53 WT", "description": "as §1"}, "SKOV-3 cells": {"test_system": "SKOV-3 cells", "experiment": "Cell cycle analysis (flow cytometry)", "format": "cell-based", "conditions": "72 hours, 5 µM, 10 µM and 20 µM; p53 mutant; data not shown", "description": "as §1"}, "U-937 cells": {"test_system": "U-937 cells", "experiment": "Cell cycle analysis (flow cytometry)", "format": "cell-based", "conditions": "various concentrations, 24 hour", "description": "as §1"}, "bc1-2": {"test_system": "bc1-2", "experiment": "Western blot of cell lysates, apoptosis markers", "format": "cell-based", "conditions": "increasing concentrations; data not shown", "description": "(§2) For Western blotting, cells (8×10^5) were seeded in a culture dish with 10 mL medium and incubated overnight at 37° C., 5% CO2. Untreated and compound-treated cells were lysed using phosphate lysis buffer and protease inhibitors. The protein concentration of each sample was determined by Bio-Rad DC™ protein assay (Bio-Rad Laboratories, Hercules, CA, United States of America). The protein was deactivated at 95° C. for 5 min and then resolved on 4-20% polyacrylamide gels by electrophoresis. Proteins were transferred to polyvinylidene difluoride (PDVF) membrane and blocked for 1 h with 10% skimmed milk (SM) in Tris-buffered saline and Tween (TBST). After adding primary antibody, the membranes were incubated overnight on a rocker in a 4° C. cold room. The following day, membranes were washed in TBST (4×20 min), incubated for at least 1 h at room temperature with the appropriate horseradish peroxidase conjugated secondary antibody. Following this, the blots were washed with TBST (4×20 min) again. The blots were then treated with Western blotting detection reagent and the band intensity was determined using a Bio-Rad ChemiDoc™ MP imaging system (Bio-Rad Laboratories). All the antibodies used for protein detection were from Cell Signaling Technology (Danvers, MA, United States of America). […]"}, "[2]": {"test_system": "cleaved PARP (poly (ADP-ribose) polymerase)", "experiment": "Western blot of cell lysates, apoptosis markers", "format": "cell-based", "conditions": "increasing concentrations; data not shown", "description": "as §2"}, "[3]": {"test_system": "cyclin D1 mRNA in A2780 cells", "experiment": "RT-qPCR", "format": "cell-based", "conditions": "24 hours", "description": "(§3) The expression of different genes at the mRNA level was assayed by RT-qPCR. Briefly, cells (1×10^6) were seeded in 10 cm tissue culture plates and treated with compounds after having been cultured overnight at 37° C., 5% CO2. RNA was extracted using the High Pure RNA Isolation Kit (Roche Applied Science, Castle Hill, NSW, Australia) according to the manufacturer’s instructions. The concentration of RNA in each sample was determined using a NanoDrop® ND1000 spectrophotometer (ThermoFisher Scientific, Waltham, MA, United States of America). 1 µg of RNA was used in a 20 µL reverse transcription reaction using a Transcriptor First Strand cDNA Synthesis Kit (Roche Applied Science). RT-qPCR was completed using duplicate samples with cDNA using SYBR Green I dye (Roche Applied Science) and performed using Light Cycler LC96 (Roche Applied Science, Penzberg, Germany). GAPDH mRNA was used as a reference sequence and data was analysed using Bio-Rad CFX manager version 3.1."}, "p53 mRNA in A2780 cells": {"test_system": "p53 mRNA in A2780 cells", "experiment": "RT-qPCR", "format": "cell-based", "conditions": "24 hours", "description": "as §3"}, "A2780 cells": {"test_system": "A2780 cells", "experiment": "Colony formation assay", "format": "cell-based", "conditions": "data not shown", "description": "A total of 1000-1500 cells/well were plated on a 6 well plate and allowed to adhere for 6-8 hours. Appropriate concentrations of Rilpivirine were added and then the cells were put back into the incubator for 7-14 days. The medium was changed every 3 days. After the incubation, the cells were washed with 1 ml PBS carefully. Cells were then fixed with 1 % Formaldehyde and stained with crystal violet. Colonies were counted with >50 cells by eye and images were taken using a camera fitted with microscope."}}}
{"smiles": "Cc1cc(/C=C/C#N)cc(C)c1Nc1ccnc(Nc2ccc(C#N)cc2)n1", "note": "[Rilpivirine, 4-[[4-[4-[(E)-2-cyanoethenyl]-2,6-dimethylanilino]pyrimidin-2-yl]amino]benzonitrile]", "values": [{"measurement": "percent inhibition of the other 424 kinases", "setting": "[1]", "result": "less than 70%"}, {"measurement": "kinase selectivity", "setting": "[1]; panel of 429 kinases", "result": "selective inhibitor of Aurora A"}, {"measurement": "cell cycle arrest", "setting": "Jurkat cells", "result": "arrests NB4 and Jurkat cells in the G2/M phase in a dose-dependent manner"}, {"measurement": "cell cycle arrest", "setting": "NB4 cells", "result": "arrests NB4 and Jurkat cells in the G2/M phase in a dose-dependent manner"}, {"measurement": "cell cycle arrest", "setting": "OVCAR-5 cells", "result": "arrests the cells in the G1 phase or accumulated in Sub-G1 phase at higher concentrations"}, {"measurement": "cell cycle arrest", "setting": "SKOV-3 cells", "result": "caused G2/M arrest in a dose-dependent manner"}, {"measurement": "cell cycle arrest", "setting": "U-937 cells", "result": "arrests both of these cell lines in the G2/M phase in a dose-dependent manner"}, {"measurement": "bc1-2 level in cell lysates", "setting": "bc1-2", "result": "downregulation of bc1-2"}, {"measurement": "cleaved PARP in cell lysates", "setting": "[2]", "result": "appearance in the cell lysates of cleaved PARP"}, {"measurement": "cyclin D1 mRNA", "setting": "[3]", "result": "decrease in cyclin D1mRNA was observed in a dose-dependent manner"}, {"measurement": "p53 mRNA expression", "setting": "p53 mRNA in A2780 cells; 20 µM", "result": "dramatic increase in p53 expression"}, {"measurement": "p53 mRNA expression", "setting": "p53 mRNA in A2780 cells; increasing concentration", "result": "upregulated p53 expression"}, {"measurement": "clonogenic survival", "setting": "A2780 cells", "result": "clear inhibition of clonogenic survival"}]}
